The source made the active and inactive calls.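 How the source made its calls: active means cell-killing curve crosses a set limit at a concentration no more than twice the top valid dose; inconclusive means flat curve with a 30 to 70% loss, or a poor fit; inactive means signal rising instead of falling, and the rest.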
Assay: TC71 Ewing sarcoma cell killing, confirmation, luminescence, cherry-picked samples, retest (AID 720570)
Settings: TC71 Ewing sarcoma viability, CellTiter-Glo ATP, 72 h

Row | SMILES | activity change, negative = cytotoxicity (at 26 µM (top of the series)) | activity change, negative = cytotoxicity (at 23.5 µM (top of the series))
1 | COc1ccc(NS(=O)(=O)c2cc(NC(=O)CNC(=O)c3cccc(OC)c3)ccc2C)cc1 | -0.075% (inactive) | 
2 | CCNC(=O)c1cccc(S(=O)(=O)N2CCCCCC2)c1 | -7.03% (inactive) | 
3 | CC(=NNc1ccc2ccccc2n1)c1ccccc1O | -20.9% (inactive) | 
4 | COc1ccc2oc(-c3ccccc3)cc(=O)c2c1 | 1.87% (inactive) | 
5 | CC(C)CC(NC(=O)c1cccs1)c1nnc(SCc2ccc(Cl)c(Cl)c2)n1C (stereo not drawn) | -10% (inactive) | 
6 | Nc1ccc(Oc2ccccc2-c2ccccc2)cc1 | 5.42% (inactive) | 
7 | Cc1csc(NC(=O)CCc2c(C)nc3cc(-c4ccc(Cl)cc4)nn3c2C)n1 | 10.8% (inactive) | 
8 | CO[C@H]1CN(C)C(=O)c2ccc(NC(=O)c3ccc(-c4ccccc4)cc3)cc2OC[C@H](C)NC[C@H]1C | 7.36% (inactive) | 
9 | CCCCOc1ccc(NC(=O)C(=O)NCCCn2ccnc2)cc1 | -2% (inactive) | 
10 | C(=N\Nc1ccc2ccccc2n1)/c1ccc2c(c1)OCCO2 | -8.46% (inactive) | 
11 | COC(=O)C[C@@H]1CC[C@@H]2[C@H](COc3ccc(NC(=O)Nc4cccc(C#N)c4)cc3C(=O)N2C)O1 | 5.41% (inactive) | 
12 | COC(=O)C[C@@H]1CC[C@H]2[C@H](COc3ccc(NC(=O)Nc4cc(C)cc(C)c4)cc3C(=O)N2C)O1 | 5.7% (inactive) | 
13 | O=C(O)CN1C(=O)/C(=C\c2ccccc2OCc2ccc(Cl)cc2Cl)SC1=S | 10.8% (inactive) | 
14 | Cc1ccsc1/C=N/Nc1cccc(C(=O)O)c1 | -2.07% (inactive) | 
15 | C=CCn1c(O)c(N=Nc2ccccc2)c2ccccc21 | 10.5% (inactive) | 
16 | Cc1c(CC(=O)NCCCC(=O)O)c(=O)oc2cc3c(cc12)CCC(C)(C)O3 | 4.66% (inactive) | 
17 | CC1=NC(=O)C(N=Nc2cccc(C(=O)O)c2)N1c1ccccc1 (stereo not drawn) | 18.2% (inactive) | 
18 | CCc1ccc(N2C=C(C(=O)OC)C(c3ccc(OC)cc3)C(C#N)=C2N)cc1 (stereo not drawn) | -7.67% (inactive) | 
19 | Cc1noc(C)c1NC(=O)Nc1ccc2c(c1)CC(=O)N([C@@H](C)CO)C[C@@H](C)[C@@H](CN(C)Cc1ccc(Cl)c(Cl)c1)O2 | -0.95% (inactive) | 
20 | COc1ccccc1/C=C1\SC(=S)N(CCC(=O)Nc2cc(C)on2)C1=O | 6.74% (inactive) | 

Row | SMILES | activity change, negative = cytotoxicity (at 26 µM (top of the series)) | activity change, negative = cytotoxicity (at 23.5 µM (top of the series))
21 | Cc1ccc(NC(=O)CCN2CCCCC2)cc1 | 3.68% (inactive) | 
22 | O=C(NCc1ccccn1)c1ccc(CNS(=O)(=O)c2cccc(Cl)c2)cc1 | 3.71% (inactive) | 
23 | CCc1ccc(/C=C2\SC(=S)N(CCCC(=O)N3CCN(C)CC3)C2=O)cc1 | -30.1% (inactive) | 
24 | O=c1cc(CN2CCN(Cc3ccccc3)CC2)c2ccc(O)c(O)c2o1 | -9.02% (inactive) | 
25 | COc1ccc(/C=C2\SC(=S)N(CCCC(=O)NC3CCCC3)C2=O)cc1OC | -1.55% (inactive) | 
26 | Nc1ccc2oc(-c3cc(Br)ccc3Cl)nc2c1 | -14.7% (inactive) | 
27 | C[C@@H]1CN([C@H](C)CO)C(=O)c2cc(NC(=O)CCCCCC(=O)Nc3ccccc3N)ccc2O[C@H]1CN(C)S(=O)(=O)c1ccc(Cl)cc1 | -12.6% (inactive) | 
28 | CCOC(=O)C1CCCCN1C(=O)CCc1c(C)nc2cc(-c3ccccc3)nn2c1C (stereo not drawn) | 11.3% (inactive) | 
29 | O=C(O)c1cccc(N/N=C/c2ccc(OC(F)(F)F)cc2)c1 | 1.52% (inactive) | 
30 | COC(=O)C[C@@H]1CC[C@@H]2[C@H](COc3ccc(NC(=O)c4ccccc4)cc3C(=O)N2C)O1 | 7.67% (inactive) | 
31 | O=C1C(=O)N(Cc2cccs2)c2ccccc21 | 17.4% (inactive) | 
32 | O=C(O)c1ccc(N/N=C/c2ccc(OC(=O)c3cccc(Cl)c3)cc2)cc1 | -1.51% (inactive) | 
33 | CCC(C)Cn1c(O)cc2nn(-c3nc4ccccc4s3)c(=O)c-2c1C (stereo not drawn) | -4.93% (inactive) | 
34 | Cc1ccc(C(C(=O)NCc2ccco2)N(C(=O)CNC(=O)c2cccs2)c2c(C)cc(C)cc2C)cc1 (stereo not drawn) | -13.1% (inactive) | 
35 | COC(=O)C[C@@H]1CC[C@@H]2[C@H](COc3ccc(NC(=O)c4ccc(F)cc4)cc3C(=O)N2C)O1 | 15.1% (inactive) | 
36 | Cc1c(Cl)cnc(NC(=O)COC(=O)c2ccc3ncsc3c2)c1Cl | 5.39% (inactive) | 
37 | N#C[C@@H]1[C@H](c2ccc(C#Cc3ccccc3F)cc2)[C@@H](CO)N1C(=O)c1cccnc1 | 13.1% (inactive) | 
38 | C/C=C/c1ccc(C2[C@@H]3CN(C(=O)Cc4ccccc4)C[C@H]2N3)cc1 (stereo partly drawn) | 6.18% (inactive) | 
39 | c1ccc(-c2ccc([C@H]3[C@H]4CNC[C@@H]3N4Cc3cc(-c4ccccc4)on3)cc2)cc1 | -7.89% (inactive) | 
40 | COc1cc(OC)cc(-c2cc3nc(C)c(CCC(=O)O)c(C)n3n2)c1 | 13.7% (inactive) | 

Row | SMILES | activity change, negative = cytotoxicity (at 26 µM (top of the series)) | activity change, negative = cytotoxicity (at 23.5 µM (top of the series))
41 | O=C(C[C@@H]1CC[C@@H]2[C@H](COC[C@@H](O)CN2S(=O)(=O)c2ccc(F)cc2)O1)NCc1ccc(Cl)c(Cl)c1 | -10.7% (inactive) | 
42 | CCOC(=O)Cc1ccc(NC(=O)c2ccccc2Br)cc1 | 1.04% (inactive) | 
43 | CCc1ccc(/C=C2\SC(=S)N(CCC(=O)Nc3cc(C)on3)C2=O)cc1 | 9.95% (inactive) | 
44 | N#Cc1cccc(-c2ccc(C3[C@@H]4CN(C(=O)Cc5ccncc5)C[C@H]3N4)cc2)c1 (stereo partly drawn) | 0.809% (inactive) | 
45 | CCOc1ccc(-c2noc(CCC(=O)O)n2)cc1 | 14.8% (inactive) | 
46 | O=C1CCC2S/C(=C/Nc3ccc(C(F)(F)F)cc3)C(=O)N12 (stereo not drawn) | 11.9% (inactive) | 
47 | O=C(NC(=O)c1ccccc1)Nc1ccccc1 | 10.6% (inactive) | 
48 | COC(=O)C[C@@H]1CC[C@@H]2[C@@H](COc3ccc(NC(=O)Nc4ccccc4C)cc3C(=O)N2C)O1 |  | 14.2% (inactive)
49 | COc1ccc(CCC(C)NCC2CCCCC2)cc1 (stereo not drawn) | 7.46% (inactive) | 
50 | COc1ccc(/C=C2\Oc3ccccc3C2=O)cc1 | -14.5% (inactive) | 
51 | COC(=O)Cc1ccc(NC(=O)c2ccccc2Cl)cc1 | -1.96% (inactive) | 
52 | C[C@@H]1CN([C@H](C)CO)S(=O)(=O)c2ccc(C#Cc3ccncc3)cc2O[C@@H]1CN(C)C(=O)Nc1ccc2c(c1)OCO2 | -0.54% (inactive) | 
53 | O=C(CCCN1C(=O)/C(=C/c2ccccc2Cl)SC1=S)NNC(=O)c1ccc(Cl)cc1 | -7.21% (inactive) | 
54 | C[C@H](CO)N1C[C@H](C)[C@H](CN(C)Cc2ccc(C(F)(F)F)cc2)Oc2c(NS(=O)(=O)c3ccc(Cl)cc3)cccc2C1=O | 46.6% (inactive) | 
55 | CN(C)C(=O)c1cccc(-c2ccc(C3[C@@H]4CN(Cc5nccs5)C[C@H]3N4)cc2)c1 (stereo partly drawn) | 0.197% (inactive) | 
56 | Brc1ccc(CSc2nnc(-c3ccco3)o2)cc1 | 9.85% (inactive) | 
57 | CCCN1C(=O)/C(=C/c2nc3ccccc3c(=O)[nH]2)c2ccccc21 | 3.09% (inactive) | 
58 | Nc1ccc(-c2cc3ccccc3c(=O)o2)cc1 | 14.9% (inactive) | 
